Data on eleven compounds can be found in patent publication US7169932B2 (priority 2001, dated 2007).

Molecules are shown by their SMILES. pKi: −log10 of the molar value. Bounds are passed on as bounds.

One assay has as its target T1, HIV-1 protease (Q7S) (Human immunodeficiency virus type 1 group M subtype B, UniProt P04585, Q495S).
T1 construct: made in house
The assay can be described thus: HIV-1 Protease RET Assay. The assay is classed as biochemical. Conditions: Ave. Ki (nM), RET assay, Q7S enzyme, pH 4.8, 37 C. The method, then: Ki's for the inhibitors of HIV-1 protease were determined using a resonance energy transfer (RET) assay. […] This enzyme is first partially purified as inclusion bodies from cell lysate. It is then solublized in 8M urea and passed through a Q-Sepharose column (Pharmacia) for further purification. To refold this protein, samples containing Q7S is dialyzed into 50 mM sodium phosphate pH 7.0, 50 mM NaCl, 10 mM DTT, and 10% glycerol.
The commercially available peptide substrate (Molecular Probes Cat. # H-2930) RE(EDANS)SQNYPIVQK(DABCYL)R is used to assess activity and Ki's. This peptide is cleaved quantitatively by HIV-1 Pr at the Tyr-Pro bond. The EDANS fluorophore absorbs at 340 nm and emits at 490 nm. The reaction is carried out in a 96 well plate in a total volume of 100 μL and is run for 12 minutes at 37 C under steady-state conditions with 5 μM substrate and 2 nM active dimer enzyme concentration. The literature value Km for this substrate and enzyme is 103+/−8 μM (See Matayoshi, et al., “Novel Fluorogenic Substrates for Assaying Retroviral Proteases by Resonance Energy Transfer,” Science 247, 954 (1990)). The buffer for this reaction is 0.1M sodium acetate pH 4.8, 1M NaCl, 1 mM EDTA, 5 mM dithiothreitol, 10% dimethyl sulfoxide and 1 mg/ml bovine serum albumin. Inhibition curves are fit using the Morrison tight binding equation.
A word on the Ki: it is a dissociation constant, usually derived from enzyme kinetics or from competition with a known ligand. Compound `CNCCNC(=O)[C@H]1N(C(=O)[C@@H](O)[C@H](Cc2ccccc2)NC(=O)c2cccc(O)c2C)CSC1(C)C` [Example A52, 3-((2S,3S)-2-Hydroxy-3-{[1-(3-hydroxy-2-methyl-phenyl)-methanoyl]-amino}-4-phenyl-butanoyl)-5,5-dimethyl-thiazolidine-4-carboxylic acid (2-methylamino-ethyl)-amide] showed a Ki of 37 nM. This counts as double-digit nanomolar.
On to `Cc1ccccc1CNC(=O)C1N(C(=O)[C@@H](O)[C@H](Cc2ccccc2)NC(=O)c2ccccn2)CSC1(C)C` (stereo partly drawn) [Example B45, Pyridine-2-carboxylic acid {(1S,2S)-1-benzyl-3-[5,5-dimethyl-4-(2-methyl-benzylcarbamoyl)-thiazolidin-3-yl]-2-hydroxy-3-oxo-propyl}-amide], for which affinity was put at a Ki of 19.7 nM.
In turn, `Cc1ccccc1CNC(=O)[C@@H]1[C@@H](C)OCN1C(=O)[C@@H](O)[C@H](Cc1ccccc1)NC(=O)c1cccc(O)c1C` [Example C5, (4S,5R)-3-((2S,3S)-2-Hydroxy-3-{[1-(3-hydroxy-2-methyl-phenyl)-methanoyl]-amino}-4-phenyl-butanoyl)-5-methyl-oxazolidine-4-carboxylic acid 2-methyl-benzylamide] came in with a Ki of 3.2 nM.
Compound `Cc1ccccc1CNC(=O)[C@H]1N(C(=O)[C@@H](O)[C@H](Cc2ccccc2)NC(=O)c2ccncc2Cl)CSC1(C)C` [Example B42, {(1S,2S)-1-Benzyl-3-[(R)-5,5-dimethyl-4-(2-methyl-benzylcarbamoyl)-thiazolidin-3-yl]-2-hydroxy-3-oxo-propyl}-3-chloro-isonicotinamide] had a Ki of 0.73 nM.
On the same count and under the same terms, for `Cc1ccccc1CNC(=O)[C@H]1N(C(=O)[C@@H](O)[C@H](Cc2ccccc2)NC(=O)c2cccnc2)CSC1(C)C` [Example B47, N-{(1S,2S)-1-Benzyl-3-[5,5-dimethyl-4-(2-methyl-benzylcarbamoyl)-thiazolidin-3-yl]-2-hydroxy-3-oxo-propyl}-nicotinamide] the value was 6.9 nM; for `Cc1noc(C)c1C(=O)NC(Cc1ccccc1)C(O)C(=O)N1CSC(C)(C)C1C(=O)NCc1ccccc1C(F)(F)F` (centres unmarked) [Example B27, 3,5-Dimethyl-isoxazole-4-carboxylic acid {1-benzyl-3-[5,5-dimethyl-4-(2-trifluoromethyl-benzylcarbamoyl)-thiazolidin-3-yl]-2-hydroxy-3-oxo-propyl}-amide], 3.5 nM.

The same assay, now with this note: Ki, table of drawn compounds, unit inferred.
A word on the pKi: it is the Ki on a negative log10 scale, so that one unit is a factor of ten. For the compound `Cc1ccccc1CNC(=O)[C@H]1N(C(=O)[C@@H](O)[C@H](Cc2ccccc2)NC(=O)c2cccnc2Cl)CSC1(C)C`, the pKi was 9.12.
For `CCC(C)CNC(=O)[C@H]1N(C(=O)[C@@H](O)[C@H](Cc2ccccc2)NC(=O)c2cccc(O)c2C)CSC1(C)C` (some centres unmarked), the pKi was not below 10.00.

The same assay, now with this note: RET assay, Q7S enzyme, pH 4.8, 37 C; read-out: Ave. Ki.
As to `Cc1ccccc1CNC(=O)C1N(C(=O)[C@@H](O)[C@H](Cc2ccccc2)NC(=O)c2ccc(O)cn2)CSC1(C)C` (stereo partly drawn) [Example B46, Pyridine-2–5-hydroxy-carboxylic acid{(1S,2S)-1-benzyl-3-[5,5-dimethyl-4-(2-methyl-benzylcarbamoyl)-thiazolidin-3-yl]-2-hydroxy-3-oxo-propyl}-amide], the pKi was 7.90.
Take `C=CCCC(=O)[C@H]1N(C(=O)[C@@H](O)[C@H](Cc2ccccc2)NC(=O)c2cccc(O)c2C)CSC1(C)C` [Example D1, N-[(1S,2S)-1-Benzyl-3-((R)-5,5-dimethyl-4-pent-4-enoyl-thiazolidin-3-yl)-2-hydroxy-3-oxo-propyl]-3-hydroxy-2-methyl-benzamide]: the pKi was more than 11.00.
Consider `Cc1ccccc1CNC(=O)[C@@H]1CC(F)(F)CN1C(=O)[C@@H](O)[C@H](Cc1ccccc1)NC(=O)c1cccc(O)c1C` [Example C1, (S)-4,4-Difluoro-1-[(2S,3S)-2-hydroxy-3-(3-hydroxy-2-methyl-benzoylamino)-4-phenyl-butyryl]-pyrrolidine-2-carboxylic acid 2-methyl-benzylamide.], for which the pKi was 9.42.
